Laboratory results published in PubChem BioAssay (NCI).
Values joined by “and” are separate entries in the source; they are usually repeats but may differ in a detail not shown here. Equal values may be shown once.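 Dose response: 5 concentrations. Exposure: 48 h. Format: 96-well plates. Endpoint: linear interpolation; highest concentration if not reached. GI50 is the concentration that inhibits growth by half. TGI marks complete inhibition of growth.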

Assays:
Assay in all cases: DTP human tumour cell line panel, 48 h
CAKI-1 renal = test system: CAKI-1 renal
OVCAR-4 ovarian = test system: OVCAR-4 ovarian
A549 NSCLC = test system: A549 NSCLC
NCI-H226 lung = test system: NCI-H226 lung
HCT-15 colon = test system: HCT-15 colon
LOX IMVI melanoma = test system: LOX IMVI melanoma
MCF7 breast = test system: MCF7 breast
SK-OV-3 ovarian = test system: SK-OV-3 ovarian
HS 578T breast = test system: HS 578T breast
SK-MEL-28 melanoma = test system: SK-MEL-28 melanoma

SMILES	GI50 (CAKI-1 renal)	TGI (CAKI-1 renal)	GI50 (OVCAR-4 ovarian)	TGI (OVCAR-4 ovarian)	GI50 (A549 NSCLC)	TGI (A549 NSCLC)	GI50 (NCI-H226 lung)	TGI (NCI-H226 lung)	GI50 (HCT-15 colon)	TGI (HCT-15 colon)	GI50 (LOX IMVI melanoma)	TGI (LOX IMVI melanoma)	GI50 (MCF7 breast)	TGI (MCF7 breast)	GI50 (SK-OV-3 ovarian)	TGI (SK-OV-3 ovarian)	GI50 (HS 578T breast)	TGI (HS 578T breast)	GI50 (SK-MEL-28 melanoma)	TGI (SK-MEL-28 melanoma)
COC(=O)[C@]12CC[C@@H](C)[C@H](C)[C@@H]1C1=CC[C@@H]3[C@@]4(C)C/C(=N\O)[C@H](O)[C@@]5(C)COC(=C45)C[C@@]3(C)[C@]1(C)CC2	11.2 µM	24.7 µM	4.46 µM	18.6 µM	10.4 µM	24.4 µM	14.8 µM	33.5 µM	5.47 µM	17.7 µM	4.6 µM	17 µM	3.5 µM	15.3 µM	16.6 µM	30.5 µM	11.4 µM	32.5 µM	15 µM	33.7 µM
Oc1c(CN2CCC(N3CCCCC3)CC2)cc(Cc2cc(CN3CCC(N4CCCCC4)CC3)c(O)c3ncccc23)c2cccnc12	0.941 µM	10.2 µM	0.435 µM	13.6 µM	1.61 µM	5.75 µM	1.49 µM	4.53 µM	0.797 µM	14.6 µM	0.62 µM	2.89 µM	0.865 µM	10.3 µM	1.21 µM	5.08 µM	4.67 µM	28.7 µM	1.24 µM	5.77 µM
COc1cc([N+](=O)[O-])cc2c3c(n(C)c12)[C@@]1(C)CCC2c4ccc(OCc5ccccc5)cc4CCC2C1C3 (some centres undefined)	86.6 µM	> 100 µM	61.6 µM	> 100 µM	72.2 µM	> 100 µM	80.4 µM	> 100 µM	53.5 µM	> 100 µM	65 µM	> 100 µM	> 100 µM	> 100 µM	54.5 µM	> 100 µM	> 100 µM	> 100 µM	> 100 µM	> 100 µM
CC[C@@H]1C(=O)N(C)c2cnc(Nc3ccc(C(=O)NC4CCN(C)CC4)cc3OC)nc2N1C1CCCC1	0.297 µM and 0.476 µM	> 10 µM and 13.6 µM	0.303 µM and 0.163 µM	9.87 µM and 4.4 µM	0.00602 µM and < 0.0113 µM	> 10 µM and 3.5 µM	0.343 µM and 0.982 µM	> 10 µM and 16.8 µM	0.186 µM and 0.219 µM	> 4.57 µM and 6.38 µM	0.00414 µM and < 0.01 µM	1.33 µM and 1.53 µM	0.00331 µM and < 0.01 µM	> 4.96 µM and 5.55 µM	0.00746 µM and < 0.01 µM	0.593 µM and 0.128 µM	0.00842 µM and 0.0188 µM	0.394 µM and 0.475 µM	–	3.32 µM and 2.59 µM
Cc1ccc2c(c1)[n+]([O-])c(N)n[n+]2[O-]	–	> 100 µM	–	> 100 µM	–	> 100 µM	–	> 100 µM	–	> 100 µM	–	> 100 µM	–	> 100 µM	–	> 100 µM	–	> 100 µM	–	> 100 µM
CC[C@@H]1CN(C)[C@H]2Cc3c([nH]c4ccccc34)C(=O)C[C@H]1C2C(=O)OC (some centres undefined)	–	> 100 µM	–	> 31.6 µM	–	> 100 µM	–	> 100 µM	–	> 100 µM	–	> 100 µM	–	> 100 µM	–	> 100 µM	–	> 100 µM	–	> 100 µM
O=C1CCCCN1CCCCC#Cc1ccccc1C#Cc1ccc([N+](=O)[O-])cc1	2.93 µM	15 µM	4.38 µM	22.5 µM	3.03 µM	13 µM	5.03 µM	22.1 µM	1.5 µM	9.89 µM	2.79 µM	8.87 µM	1.38 µM	3.65 µM	1.57 µM	6.47 µM	5.05 µM	23.5 µM	10.5 µM	22.4 µM
FC(F)(F)c1cccc(Nc2nccc(-c3cnn4nc(-c5ccccc5)ccc34)n2)c1	10.2 µM	> 25 µM	5.18 µM	10.3 µM	5.36 µM	> 14.3 µM	> 25 µM	> 25 µM	8.5 µM	24.4 µM	6.18 µM	> 17.7 µM	6.82 µM	> 25 µM	> 22.6 µM	> 25 µM	7.38 µM	> 20.3 µM	8.11 µM	> 20.4 µM
C=CC(=O)N1CC2(CCN(c3nc(OC4CCN(CCCOC)CC4)nc4c(OCC(F)(F)F)c(-c5c(C)ccc6[nH]ncc56)c(C5CC5)cc34)CC2)C1	4.15 µM	15.2 µM	4.54 µM	18.5 µM	3.45 µM	17.6 µM	3.66 µM	16.5 µM	1.66 µM	3.21 µM	1.7 µM	3.15 µM	1.67 µM	3.37 µM	8.57 µM	23.8 µM	2.91 µM	13.3 µM	1.75 µM	3.37 µM
Oc1ccc(CN2CCC(N3CCCCC3)CC2)c2cccnc12	33.8 µM	> 100 µM	24.2 µM	> 100 µM	6.68 µM	> 100 µM	29 µM	82.2 µM	5.83 µM	> 100 µM	5.32 µM	> 100 µM	21.5 µM	> 100 µM	24.8 µM	> 100 µM	17.6 µM	> 100 µM	21.4 µM	> 100 µM
COc1ccc(-c2cc(=O)c3ccc(O)cc3o2)cc1OC	–	> 100 µM	–	> 100 µM	–	> 100 µM	–	> 100 µM	–	> 100 µM	–	> 100 µM	–	> 100 µM	–	> 100 µM	–	> 100 µM	–	> 100 µM
CC[C@@]1(O)C(=O)OCc2c1cc1n(c2=O)Cc2c-1nc1cc3c(cc1c2CCl)OCO3	< 0.01 µM	0.477 µM	0.693 µM	11.6 µM	< 0.01 µM	3.25 µM	< 0.01 µM	1.3 µM	0.192 µM	12.3 µM	< 0.01 µM	0.426 µM	< 0.01 µM	> 100 µM	< 0.01 µM	1.07 µM	1.29 µM	> 54.1 µM	2.33 µM	18.9 µM
C[C@@H]1OC(O)[C@@H](F)[C@H](O)[C@@H]1O (some centres undefined)	> 100 µM	> 100 µM	> 100 µM	> 100 µM	> 100 µM	> 100 µM	> 100 µM	> 100 µM	> 100 µM	> 100 µM	> 100 µM	> 100 µM	> 100 µM	> 100 µM	> 100 µM	> 100 µM	> 100 µM	> 100 µM	> 100 µM	> 100 µM
CCN(CC)c1ccc(/C=C/c2ccc3cc(C)ccc3[n+]2CC)cc1	2.03 µM	12 µM	0.0468 µM	12.1 µM	0.119 µM	14.6 µM	0.152 µM	9.85 µM	1.32 µM	12.9 µM	0.0666 µM	1.2 µM	0.0773 µM	3.26 µM	0.141 µM	0.732 µM	1.01 µM	69 µM	0.279 µM	2.19 µM
C=CCCCCCCCCC(=O)[O][Sn]([CH2]CCC)([CH2]CCC)[CH2]CCC	0.112 µM	0.3 µM	0.12 µM	0.251 µM	0.164 µM	0.322 µM	0.17 µM	0.325 µM	0.158 µM	0.348 µM	0.138 µM	0.278 µM	0.137 µM	0.272 µM	0.149 µM	0.306 µM	0.166 µM	0.493 µM	0.157 µM	0.296 µM
CC1(C)OC2[C@@H](CNC(=O)NC(=O)NC(=O)CI)O[C@@H](n3cnc4c(NC(=O)Nc5ccccc5)ncnc43)[C@H]2O1 (some centres undefined)	0.79 µM	1.56 µM	7.16 µM	21 µM	> 50 µM	> 50 µM	8.96 µM	20.3 µM	4.84 µM	11.9 µM	0.907 µM	1.74 µM	6.17 µM	14.2 µM	22.2 µM	> 50 µM	12.5 µM	37.8 µM	8.53 µM	16 µM
CCCn1cnc2c(SCc3ccccc3Cl)nc(N)nc21	6.43 µM	44.1 µM	28 µM	> 100 µM	20.8 µM	> 100 µM	16.4 µM	> 100 µM	1.36 µM	20.1 µM	4.86 µM	20.3 µM	38.6 µM	> 100 µM	14.9 µM	> 100 µM	40.4 µM	> 100 µM	27 µM	> 100 µM
O=C(N/N=C/c1ccccc1O)c1ccccc1Nc1ccnc(C(F)(F)F)c1	0.337 µM	10.3 µM	0.271 µM	> 100 µM	0.505 µM	> 30.9 µM	1.08 µM	12.1 µM	0.177 µM	> 100 µM	0.279 µM	> 54.7 µM	0.35 µM	29.2 µM	0.649 µM	38 µM	12.9 µM	> 100 µM	1.71 µM	> 88.1 µM
Nc1nc(Cl)c2ncn(Cc3ccc(C45CC6CC(CC(C6)C4)C5)c(O)c3)c2n1	1.77 µM	4.8 µM	0.991 µM	3.82 µM	1.29 µM	3.17 µM	12 µM	42.9 µM	8.78 µM	25.5 µM	2.38 µM	13 µM	3.14 µM	13 µM	5.64 µM	21.4 µM	2.29 µM	12.1 µM	10.6 µM	25.9 µM
CC(=O)OC[C@]1(C)C=C2C(=O)[C@](C)(O)C3(CC3)C(C)=C2[C@H]1O	0.041 µM	2.58 µM	0.094 µM	0.649 µM	0.172 µM	2.8 µM	0.217 µM	0.634 µM	0.0306 µM	31.8 µM	0.0875 µM	0.65 µM	0.0273 µM	15.5 µM	0.194 µM	1.11 µM	0.296 µM	1.09 µM	0.215 µM	0.575 µM
Cn1c(=O)c2[nH]c(SCc3ccccn3)nc2n(C)c1=S	–	> 100 µM	–	> 100 µM	–	> 100 µM	–	> 100 µM	–	> 100 µM	–	> 100 µM	–	> 100 µM	–	66.4 µM	–	> 100 µM	–	> 100 µM
CC/C(=C(/c1ccc(O)cc1)c1ccc(OCCNC)cc1)c1ccccc1	2.75 µM	8.58 µM	3.32 µM	15.4 µM	1.89 µM	3.95 µM	5.03 µM	20.3 µM	1.87 µM	4.07 µM	1.75 µM	3.17 µM	0.0324 µM	2.95 µM	3.45 µM	12 µM	1.87 µM	5.16 µM	1.71 µM	3.21 µM
COc1cc2c(c(O)c1Br)C(=O)c1c(O)cc(C[C@H](C)O)cc1[C@H]2[C@H]1c2cc(C[C@H](C)O)cc(O)c2C(=O)c2c1cc(OC)c(Br)c2O	10.6 µM and 28.4 µM	33.3 µM and 94.6 µM	11.1 µM and 25 µM	67.5 µM and 98.1 µM	10.1 µM and 20.9 µM	32.9 µM and > 100 µM	6.33 µM and 10.6 µM	30.9 µM and 47.6 µM	10.4 µM and 17.4 µM	67.5 µM and > 100 µM	6.57 µM and 11.4 µM	16.2 µM and 34.4 µM	2.44 µM and 3.58 µM	67.5 µM and > 100 µM	11.6 µM and 24.3 µM	47.1 µM and 89.8 µM	2.99 µM and 4.1 µM	67.5 µM and 65.9 µM	4.54 µM and 5.6 µM	32.9 µM and > 100 µM
Cn1c2ccccc2c2c(-c3ccccc3)[n+]3ccncc3nc21	> 100 µM	> 100 µM	> 100 µM	> 100 µM	> 100 µM	> 100 µM	> 100 µM	> 100 µM	> 100 µM	> 100 µM	> 100 µM	> 100 µM	63.6 µM	> 100 µM	> 100 µM	> 100 µM	87.5 µM	> 100 µM	> 100 µM	> 100 µM
C[C@]12CC[C@H]3[C@@H](CC=C4C[C@@H](O)CC[C@@]43C)[C@@H]1CC[C@@H]2N(CCO)CCO	–	> 100 µM	–	> 100 µM	–	> 100 µM	–	> 100 µM	–	> 100 µM	–	> 100 µM	–	> 100 µM	–	> 100 µM	–	> 100 µM	–	> 100 µM
